± gives the standard deviation of the averaged measurements.
Columns and labels:
Assay in all cases: relative cell growth vs untreated control (GI, NCI-DTP normalisation with time-zero) (fraction of control growth); higher = more growth / less inhibition
Details in all cases: treatment time: 120 h
A204 = test system: A204
Procedure: (§1)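 Cancer cell lines in 96-well plates were treated 48 h after seeding with M4076 (ATM inhibitor) and berzosertib (ATR inhibitor), alone or mixed, in 4-fold dilutions for 120 h. Protein was read by sulforhodamine B staining, background-subtracted and normalised NCI-DTP style to untreated control growth. Rows with one concentration equal to 0 are monotherapy.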

ASPC1 = test system: ASPC1
Procedure: as §1

COLO205 = test system: COLO205
Procedure: as §1

HT29 = test system: HT29
Procedure: as §1

LOVO = test system: LOVO
Procedure: as §1

MDAMB231 = test system: MDAMB231
Procedure: as §1

NCIH460 = test system: NCIH460
Procedure: as §1

PANC1 = test system: PANC1
Procedure: as §1

RDES = test system: RDES
Procedure: as §1

U2OS = test system: U2OS
Procedure: as §1

[1] = concentration of first compound 0.0195 µM, concentration of partner 0 M
[2] = concentration of first compound 0.0195 µM, concentration of partner 0.2 µM
[3] = concentration of first compound 0.0781 µM, concentration of partner 0 M
[4] = concentration of first compound 0.0781 µM, concentration of partner 0.2 µM
[5] = concentration of first compound 0.313 µM, concentration of partner 0 M
[6] = concentration of first compound 0.313 µM, concentration of partner 0.2 µM
[7] = concentration of first compound 1 µM, concentration of partner 0 M
[8] = concentration of first compound 1 µM, concentration of partner 0.0195 µM
[9] = concentration of first compound 1 µM, concentration of partner 0.0781 µM
[10] = concentration of first compound 1 µM, concentration of partner 0.313 µM
[11] = concentration of first compound 1 µM, concentration of partner 1.25 µM
[12] = concentration of first compound 1 µM, concentration of partner 5 µM
[13] = concentration of first compound 1.25 µM, concentration of partner 0 M
[14] = concentration of first compound 1.25 µM, concentration of partner 0.2 µM
[15] = concentration of first compound 5 µM, concentration of partner 0 M
[16] = concentration of first compound 5 µM, concentration of partner 0.2 µM

SMILES: COc1cc2ncc3c(c2cc1-c1cn(C)nc1C)n(-c1c(F)cncc1OC)c(=O)n3C [M4076] + CNCc1ccc(-c2cc(-c3nc(-c4ccc(S(=O)(=O)C(C)C)cc4)cnc3N)on2)cc1 [berzosertib]
- relative cell growth (A204; [1]): 1.25 ± 0.11
- relative cell growth (A204; [2]): 0.675
- relative cell growth (A204; [3]): 1.16 ± 0.1
- relative cell growth (A204; [4]): 0.9
- relative cell growth (A204; [5]): 1.1 ± 0.098
- relative cell growth (A204; [6]): 0.654
- relative cell growth (A204; [7]): 0.83
- relative cell growth (A204; [8]): 0.965
- relative cell growth (A204; [9]): 0.785
- relative cell growth (A204; [10]): 0.205
- relative cell growth (A204; [11]): -0.0708
- relative cell growth (A204; [12]): -0.102
- relative cell growth (A204; [13]): 0.914 ± 0.081
- relative cell growth (A204; [14]): 0.685
- relative cell growth (A204; [15]): 0.524 ± 0.047
- relative cell growth (A204; [16]): 0.337
- relative cell growth (ASPC1; [1]): 1.2 ± 0.16
- relative cell growth (ASPC1; [2]): 0.322
- relative cell growth (ASPC1; [3]): 1.08 ± 0.15
- relative cell growth (ASPC1; [4]): 0.194
- relative cell growth (ASPC1; [5]): 1.2 ± 0.16
- relative cell growth (ASPC1; [6]): 0.0757
- relative cell growth (ASPC1; [7]): 0.84
- relative cell growth (ASPC1; [8]): 0.803
- relative cell growth (ASPC1; [9]): 0.418
- relative cell growth (ASPC1; [10]): -0.0794
- relative cell growth (ASPC1; [11]): -0.118
- relative cell growth (ASPC1; [12]): -0.115
- relative cell growth (ASPC1; [13]): 0.943 ± 0.13
- relative cell growth (ASPC1; [14]): 0.0458
- relative cell growth (ASPC1; [15]): 0.675 ± 0.092
- relative cell growth (ASPC1; [16]): 0.0314
- relative cell growth (COLO205; [1]): 1.18 ± 0.19
- relative cell growth (COLO205; [2]): 0.641
- relative cell growth (COLO205; [3]): 1.15 ± 0.18
- relative cell growth (COLO205; [4]): 0.668
- relative cell growth (COLO205; [5]): 1.12 ± 0.18
- relative cell growth (COLO205; [6]): 0.373
- relative cell growth (COLO205; [7]): 0.959
- relative cell growth (COLO205; [8]): 0.916
- relative cell growth (COLO205; [9]): 0.37
- relative cell growth (COLO205; [10]): 0.105
- relative cell growth (COLO205; [11]): 0.0405
- relative cell growth (COLO205; [12]): -0.0244
- relative cell growth (COLO205; [13]): 1.02 ± 0.16
- relative cell growth (COLO205; [14]): 0.208
- relative cell growth (COLO205; [15]): 0.892 ± 0.14
- relative cell growth (COLO205; [16]): 0.172
- relative cell growth (HT29; [1]): 1.3 ± 0.27
- relative cell growth (HT29; [2]): 0.0171
- relative cell growth (HT29; [3]): 1.23 ± 0.26
- relative cell growth (HT29; [4]): 0.0537
- relative cell growth (HT29; [5]): 1.19 ± 0.25
- relative cell growth (HT29; [6]): 0.00799
- relative cell growth (HT29; [7]): 0.888
- relative cell growth (HT29; [8]): 0.81
- relative cell growth (HT29; [9]): 0.27
- relative cell growth (HT29; [10]): -0.0312
- relative cell growth (HT29; [11]): -0.0506
- relative cell growth (HT29; [12]): -0.0437
- relative cell growth (HT29; [13]): 1.11 ± 0.23
- relative cell growth (HT29; [14]): 0.00308
- relative cell growth (HT29; [15]): 0.933 ± 0.2
- relative cell growth (HT29; [16]): -0.00294
- relative cell growth (LOVO; [1]): 1.25 ± 0.26
- relative cell growth (LOVO; [2]): 0.105
- relative cell growth (LOVO; [3]): 1.21 ± 0.25
- relative cell growth (LOVO; [4]): 0.209
- relative cell growth (LOVO; [5]): 1.09 ± 0.23
- relative cell growth (LOVO; [6]): 0.0984
- relative cell growth (LOVO; [7]): 0.971
- relative cell growth (LOVO; [8]): 0.763
- relative cell growth (LOVO; [9]): 0.508
- relative cell growth (LOVO; [10]): -0.0419
- relative cell growth (LOVO; [11]): -0.0608
- relative cell growth (LOVO; [12]): -0.0633
- relative cell growth (LOVO; [13]): 1.1 ± 0.23
- relative cell growth (LOVO; [14]): -0.000928
- relative cell growth (LOVO; [15]): 0.981 ± 0.2
- relative cell growth (LOVO; [16]): -0.0311
- relative cell growth (MDAMB231; [1]): 1.06 ± 0.085
- relative cell growth (MDAMB231; [2]): 1.1
- relative cell growth (MDAMB231; [3]): 1.02 ± 0.082
- relative cell growth (MDAMB231; [4]): 0.932
- relative cell growth (MDAMB231; [5]): 0.93 ± 0.074
- relative cell growth (MDAMB231; [6]): 0.499
- relative cell growth (MDAMB231; [7]): 0.858
- relative cell growth (MDAMB231; [8]): 0.907
- relative cell growth (MDAMB231; [9]): 0.708
- relative cell growth (MDAMB231; [10]): 0.198
- relative cell growth (MDAMB231; [11]): -0.00535
- relative cell growth (MDAMB231; [12]): -0.032
- relative cell growth (MDAMB231; [13]): 0.775 ± 0.062
- relative cell growth (MDAMB231; [14]): 0.328
- relative cell growth (MDAMB231; [15]): 0.695 ± 0.056
- relative cell growth (MDAMB231; [16]): 0.42
- relative cell growth (NCIH460; [1]): 1.14 ± 0.19
- relative cell growth (NCIH460; [2]): 0.607
- relative cell growth (NCIH460; [3]): 1.16 ± 0.2
- relative cell growth (NCIH460; [4]): 0.678
- relative cell growth (NCIH460; [5]): 1.14 ± 0.19
- relative cell growth (NCIH460; [6]): 0.354
- relative cell growth (NCIH460; [7]): 0.972
- relative cell growth (NCIH460; [8]): 0.969
- relative cell growth (NCIH460; [9]): 0.79
- relative cell growth (NCIH460; [10]): 0.0691
- relative cell growth (NCIH460; [11]): -0.00904
- relative cell growth (NCIH460; [12]): -0.0222
- relative cell growth (NCIH460; [13]): 1.11 ± 0.19
- relative cell growth (NCIH460; [14]): 0.199
- relative cell growth (NCIH460; [15]): 1.06 ± 0.18
- relative cell growth (NCIH460; [16]): 0.203
- relative cell growth (PANC1; [1]): 1.27 ± 0.16
- relative cell growth (PANC1; [2]): 0.992
- relative cell growth (PANC1; [3]): 1.2 ± 0.15
- relative cell growth (PANC1; [4]): 1.36
- relative cell growth (PANC1; [5]): 1.45 ± 0.18
- relative cell growth (PANC1; [6]): 0.541
- relative cell growth (PANC1; [7]): 0.96
- relative cell growth (PANC1; [8]): 0.764
- relative cell growth (PANC1; [9]): 0.526
- relative cell growth (PANC1; [10]): 0.0924
- relative cell growth (PANC1; [11]): -0.0345
- relative cell growth (PANC1; [12]): -0.0793
- relative cell growth (PANC1; [13]): 1.1 ± 0.14
- relative cell growth (PANC1; [14]): 0.278
- relative cell growth (PANC1; [15]): 0.743 ± 0.095
- relative cell growth (PANC1; [16]): 0.309
- relative cell growth (RDES; [1]): 1.1 ± 0.013
- relative cell growth (RDES; [2]): 1.16
- relative cell growth (RDES; [3]): 1.01 ± 0.012
- relative cell growth (RDES; [4]): 1.16
- relative cell growth (RDES; [5]): 0.941 ± 0.011
- relative cell growth (RDES; [6]): 1.13
- relative cell growth (RDES; [7]): 0.836
- relative cell growth (RDES; [8]): 0.933
- relative cell growth (RDES; [9]): 0.872
- relative cell growth (RDES; [10]): 0.395
- relative cell growth (RDES; [11]): 0.0966
- relative cell growth (RDES; [12]): -0.0939
- relative cell growth (RDES; [13]): 0.877 ± 0.011
- relative cell growth (RDES; [14]): 0.973
- relative cell growth (RDES; [15]): 0.681 ± 0.0083
- relative cell growth (RDES; [16]): 0.706
- relative cell growth (U2OS; [1]): 1.1 ± 0.054
- relative cell growth (U2OS; [2]): 0.876
- relative cell growth (U2OS; [3]): 1.09 ± 0.053
- relative cell growth (U2OS; [4]): 0.865
- relative cell growth (U2OS; [5]): 0.972 ± 0.048
- relative cell growth (U2OS; [6]): 0.504
- relative cell growth (U2OS; [7]): 0.916
- relative cell growth (U2OS; [8]): 0.798
- relative cell growth (U2OS; [9]): 0.611
- relative cell growth (U2OS; [10]): 0.191
- relative cell growth (U2OS; [11]): -0.111
- relative cell growth (U2OS; [12]): -0.131
- relative cell growth (U2OS; [13]): 0.935 ± 0.046
- relative cell growth (U2OS; [14]): 0.312
- relative cell growth (U2OS; [15]): 0.852 ± 0.042
- relative cell growth (U2OS; [16]): 0.229

Reference: the supplement of paper PMC10721915
